Test results as given in patent US20130059773A1, “COMPOUNDS FOR THE TREATMENT OF INFLAMMATION AND NEUTROPENIA” (priority 2010, published 2013).
Entries after “also recorded” stand apart in the source; their conditions may differ. Where a SMILES comes first, the peptide text is derived from it. The star is where a group is joined. Cbz = O=C(OCc1ccccc1)*

What was measured:
Type in all cases: cell-based, human
[1] = system: neutrophils; experiment: Neutrophil apoptosis/survival by phosphatidylserine externalization after annexin-V and 7-AAD labeling; settings: for Effect of proteasome inhibitors on neutrophil death: neutrophils 15 h at 37° C.
Procedure: Analysis of apoptosis. Neutrophil apoptosis was triggered by incubating neutrophils at 37° C. alone (constitutive apoptosis) or with anti-Fas mAb (10 ng/ml; Beckman-Coulter) or gliotoxin ([…]; Sigma) (Ward et al. 1999, J. Biol. Chem. 274:4309-4318) for the indicated times. Neutrophil apoptosis was evaluated by phosphatidylserine externalization after annexin-V and 7-AAD labeling (Kantari et al. 2007, Blood 110:4086-4095); mitochondrial depolarization after DiOC6 labeling (Moriceau et al. 2009, J. Immuno1.182:7254-7263); caspase-3 and caspase-8 activities measured by spectrophotometry (Biovision) in neutrophil lysates. In DMF-differentiated-PLB985 cells, apoptosis was triggered by gliotoxin or by rTRAIL (10 ng/ml; RD System) (Yin et al. 2005, Int. J. Biochem. Cell Biol. 37:1696-1708) and caspase-8 and caspase-9 activities were determined after gating on CD11b^+ cells using the Caspase-Glow® assay (Promega). Apoptosis-induced chromatin condensation and DNA fragmentation were assessed, respectively, after DNA staining with the blue fluorescent dye Hoechst (5 mg/ml) and propidium-iodide staining (Goepel et al. 2004, J. Leukoc. Biol. 75:836-843). Carboxyp21 ([…], SEQ ID NO: 24) corresponding to the p21 carboxy-terminus sequence (residues 141-160) and containing a RYIRS carboxy-terminal extension to facilitate its cell entry was synthesized and purified (Genecust). A modified peptide in which the charged amino acids responsible for its binding to PCNA have been changed according to dynamic simulation studies ([…], SEQ ID NO: 25) served as control. The effect of PS-341 (LC Laboratories) and MG132 were tested on neutrophil apoptosis and PCNA expression as indicated.

[2] = system: PCNA; experiment: PCNA expression in neutrophils by Western blot; settings: for Effect of proteasome inhibitors on apoptosis-induced PCNA diminution: neutrophils 15 h at 37° C.
Procedure: Western blot analysis and co-immunoprecipitation experiments. Neutrophils were sonicated and cytosolic proteins were analyzed using either the PC10 mAb or the Ab5 pAb anti-PCNA according to standard immunoblot procedures (Moriceau et al. 2009, J. Immunol. 182:7254-7263). Co-immunoprecipitation experiments were performed using neutrophil cytosols obtained by cavitation (Witko-Sarsat et al. 1999, Blood 94:2487-2496). Cytosol ([…]) was mixed with […] of protein G and Ab5 pAb and incubated for 30 min at 4° C. under shaking. The sample was loaded onto a column containing Sepharose-coated magnetic beads (Milteny), washed with a stringent washing buffer (50 mM Tris, 500 mM NaCl, 1% NP-40, 0.5% Triton X-100). The column was washed twice with this buffer, twice with the same buffer except that the NaCl was 300 mM and, finally, 5 times with a hyposaline buffer (20 mM Tris pH 7.5). The sample was eluted from the column with […] 5× sample buffer and analyzed by Western blotting using different mAb to potential partners. PCNA was detected on the Western blot with the PC10 mAb and procaspases were detected with either anti-procaspase-8 (Calbiochem) mAb or mouse anti-procaspase-10 (Santa Cruz) or anti-procaspase-9 (Santa Cruz) or anti-procaspase-3 (Santa Cruz) mAbs, followed by horseradish peroxidase-conjugated anti-mouse IgG (Nordic Immunology diluted 1:5000), using the SuperSignal West Pico detection kit (Pierce).

[3] = system: neutrophils; experiment: Effects of the peptides on neutrophil apoptosis (annexin V / 7-AAD flow cytometry); settings: for Early Apoptosis, Mean / Late Apoptosis, Mean / Total Apoptosis, Mean: peptide concentration = 200 μM, 16 h at 37° C.; for Early Apoptosis, Mean: percentage annexin-V positive and 7-AAD negative; for Late Apoptosis, Mean: percentage annexin-V positive and 7-AAD positive; for Total Apoptosis, Mean: percentage of cells either 7-AAD or annexin-V-positive; for Early Apoptosis / Late Apoptosis / Total Apoptosis: peptide concentration = 500 μM
Procedure: Effects of the peptides on neutrophil apoptosis. Neutrophils were isolated from the blood of healthy volunteers using polymorphoprep (Witko-Sarsat et al. 1999; Blood 94:2487-96). Physiological apoptosis of these neutrophils was then activated by incubating them at 37° C. during 16 h in RPMI culture medium complemented with 10% serum. Under these conditions, neutrophils undergo a spontaneous apoptosis which can be evaluated by measuring the phosphatidylserine externalization (Kantari et al. 2007; Blood 110:4086-95; Moriceau et al. 2009; J Immunol 182:7254-63). Phosphatidylserine was stained using a fluorochrome-coupled annexin V allowing detection of apoptotic neutrophils by flow cytometry using a Facscan (Beckton Dickinson). Neutrophils stained with annexin V express the phosphatidylserine and are recognized and phagocytosed by macrophages. Furthermore, a secondary staining with the 7AAD intercalating agent was used to indicate late apoptosis (Durant et al. 2004; J Leukocyte Biol 75:87-98). Thus, total apoptosis is measured by the percentage of cells being either 7-AAD or annexin-V-positive (the rest of the cells being considered as viable). Early apoptosis is measured by the percentages of neutrophils being both annexin-V positive and 7-AAD negative. Late apoptosis is measured by the percentages of neutrophils being both annexin-V positive and 7-AAD positive. The necrotic cells being 7AAD positive are excluded from the analysis on the basis of the data of size/granulometry by flow cytometry analysis. […]
The peptides were added to the neutrophil cells and their effect on cell apoptosis was analyzed by measuring the phosphatidylserine externalization. Phosphatidylserine was stained using a fluorochrome-coupled annexin V allowing detection of apoptotic neutrophils by flow cytometry. Neutrophils stained with annexin V express the phosphatidylserine and are recognized and phagocytosed by macrophages. Furthermore, a secondary staining with the 7AAD intercalating agent was used to indicate late apoptosis, allowing distinction between early and late apoptosis.

[4] = system: neutrophils; experiment: Neutrophil apoptosis by mitochondrial depolarization after DiOC6 labeling; set-up: dose or concentration left out as unconfirmed; settings: 6 h at 37° C., peptide
Procedure: Analysis of apoptosis. Neutrophil apoptosis was triggered by incubating neutrophils at 37° C. alone (constitutive apoptosis) or with anti-Fas mAb (10 ng/ml; Beckman-Coulter) or gliotoxin ([…]; Sigma) (Ward et al. 1999, J. Biol. Chem. 274:4309-4318) for the indicated times. Neutrophil apoptosis was evaluated by phosphatidylserine externalization after annexin-V and 7-AAD labeling (Kantari et al. 2007, Blood 110:4086-4095); mitochondrial depolarization after DiOC6 labeling (Moriceau et al. 2009, J. Immuno1.182:7254-7263); caspase-3 and caspase-8 activities measured by spectrophotometry (Biovision) in neutrophil lysates. In DMF-differentiated-PLB985 cells, apoptosis was triggered by gliotoxin or by rTRAIL (10 ng/ml; RD System) (Yin et al. 2005, Int. J. Biochem. Cell Biol. 37:1696-1708) and caspase-8 and caspase-9 activities were determined after gating on CD11b^+ cells using the Caspase-Glow® assay (Promega). Apoptosis-induced chromatin condensation and DNA fragmentation were assessed, respectively, after DNA staining with the blue fluorescent dye Hoechst (5 mg/ml) and propidium-iodide staining (Goepel et al. 2004, J. Leukoc. Biol. 75:836-843). Carboxyp21 ([…], SEQ ID NO: 24) corresponding to the p21 carboxy-terminus sequence (residues 141-160) and containing a RYIRS carboxy-terminal extension to facilitate its cell entry was synthesized and purified (Genecust). […]

CC(C)C[C@@H](C=O)NC(=O)[C@H](CC(C)C)NC(=O)[C@H](CC(C)C)NC(=O)OCc1ccccc1 [MG132, reference compound] (Cbz-Leu-Leu-Leu-aldehyde)
Effect of proteasome inhibitors on neutrophil death [1]: significantly inhibited neutrophil death | Effect of proteasome inhibitors on apoptosis-induced PCNA diminution [2]: reversed the apoptosis-induced PCNA diminution

CC(C)C[C@H](NC(=O)[C@H](Cc1ccccc1)NC(=O)c1cnccn1)B(O)O [PS-341, reference compound]
Effect of proteasome inhibitors on neutrophil death [1]: significantly inhibited neutrophil death | Effect on PCNA degradation after incubation with anti-Fas or gliotoxin ([2]; 6 h at 37° C., PS-341 (1 mM)): reversed PCNA degradation | Effect of proteasome inhibitors on apoptosis-induced PCNA diminution [2]: reversed the apoptosis-induced PCNA diminution

APNQEKVSDYEMKLMRYIRS [peptide 1]
Early Apoptosis, Mean [3]: 62.52 | Late Apoptosis, Mean [3]: 11.47 | Total Apoptosis, Mean [3]: 73.67 | Early Apoptosis ([3]; Table V (peptides 1-4)): 65.06 | Late Apoptosis ([3]; Table V (peptides 1-4)): 6.62 | Total Apoptosis ([3]; Table V (peptides 1-4)): 68.74

KDGVKFRYIRS [peptide 5]
Early Apoptosis, Mean [3]: 62.44 | Late Apoptosis, Mean [3]: 12.36 | Total Apoptosis, Mean [3]: 74.36 | Early Apoptosis ([3]; Table VI (peptides 5-9)): 75.21 | Late Apoptosis ([3]; Table VI (peptides 5-9)): 5.39 | Total Apoptosis ([3]; Table VI (peptides 5-9)): 77.67

KRRQTGETDFDHAKAALIFSRYIRS [modified carboxy-21 peptide, reference compound]
Apoptotic neutrophils as cells with depolarized mitochondria after DiOC6 labeling [4]: no such activity was observed

KRRQTSMTDFYHSKRRLIFSRYIRS [carboxyp21]
Cells with externalized phosphatidylserine after annexin-V labeling ([1]; 6 h at 37° C., 50 mM peptide): significantly increased percentage of cells with externalized phosphatidylserine | Effect on G-CSF-induced neutrophil survival ([1]; G-CSF 1000 U/ml, carboxyp21 50 μM, 15 h): significantly inhibited G-CSF-induced neutrophil survival | PCNA expression in neutrophils exposed to increasing peptide concentrations ([2]; 3 h, increasing carboxyp21 concentrations): dose-dependent decrease of PCNA expression | Apoptotic neutrophils as cells with depolarized mitochondria after DiOC6 labeling [4]: triggered neutrophil apoptosis

MKLMDLDVEQLGIPEQEYSRYIRS [peptide 3]
Pro- or anti-apoptotic activity on neutrophils, conclusion in words [3]: exhibit a pro-apoptotic activity on neutrophils | Effect on annexin V staining (neutrophil apoptosis), in words ([3]; 500 μM): induced an increase of the annexin V staining | Early Apoptosis, Mean [3]: 63.00 | Late Apoptosis, Mean [3]: 13.27 | Total Apoptosis, Mean [3]: 76.20 | Early Apoptosis ([3]; Table V (peptides 1-4)): 68.05 | Late Apoptosis ([3]; Table V (peptides 1-4)): 12.63 | Total Apoptosis ([3]; Table V (peptides 1-4)): 78.56

MSADVPLRYIRS [peptide 7]
Early Apoptosis, Mean [3]: 62.60 | Late Apoptosis, Mean [3]: 12.30 | Total Apoptosis, Mean [3]: 74.40 | Early Apoptosis ([3]; Table VI (peptides 5-9)): 66.26 | Late Apoptosis ([3]; Table VI (peptides 5-9)): 2.85 | Total Apoptosis ([3]; Table VI (peptides 5-9)): 64.85

SQTSNVDKEEEAVRYIRS [peptide 6]
Early Apoptosis, Mean [3]: 62.91 | Late Apoptosis, Mean [3]: 13.11 | Total Apoptosis, Mean [3]: 76.02 | Early Apoptosis ([3]; Table VI (peptides 5-9)): 66.43 | Late Apoptosis ([3]; Table VI (peptides 5-9)): 5.2 | Total Apoptosis ([3]; Table VI (peptides 5-9)): 67.42

YGRKKRRQRRRAPNQEKVSDYEMKLM [peptide 2]
Early Apoptosis, Mean [3]: 52.29 | Late Apoptosis, Mean [3]: 17.38 | Total Apoptosis, Mean [3]: 69.33 | Early Apoptosis ([3]; Table V (peptides 1-4)): 46.92 | Late Apoptosis ([3]; Table V (peptides 1-4)): 23.97 | Total Apoptosis ([3]; Table V (peptides 1-4)): 68.08

YGRKKRRQRRRMKLMDLDVEQLGIPEQEYS [peptide 4]
Pro- or anti-apoptotic activity on neutrophils, conclusion in words [3]: exhibit a pro-apoptotic activity on neutrophils | Effect on annexin V staining (neutrophil apoptosis), in words ([3]; 200 μM): induced an increase of the annexin V staining | Pro-apoptotic activity on late apoptosis, in words ([3]; 200 μM, Table IV): particularly obvious on late apoptosis | Early Apoptosis, Mean [3]: 62.34 | Late Apoptosis, Mean [3]: 27.88 | Total Apoptosis, Mean [3]: 89.83 | Early Apoptosis ([3]; Table V (peptides 1-4)): 53.11 | Late Apoptosis ([3]; Table V (peptides 1-4)): 33.74 | Total Apoptosis ([3]; Table V (peptides 1-4)): 82.84

YGRKKRRQRRRYYLAPKIEDEEGS [peptide 9]
Pro- or anti-apoptotic activity on neutrophils, conclusion in words [3]: capable of preventing neutrophil apoptosis | Early Apoptosis, Mean [3]: 50.03 | Late Apoptosis, Mean [3]: 23.90 | Total Apoptosis, Mean [3]: 73.43 | Early Apoptosis ([3]; Table VI (peptides 5-9)): 48.44 | Late Apoptosis ([3]; Table VI (peptides 5-9)): 26.32 | Total Apoptosis ([3]; Table VI (peptides 5-9)): 71.84

YYLAPKIEDEEGSRYIRS [peptide 8]
Pro- or anti-apoptotic activity on neutrophils, conclusion in words [3]: significant anti-apoptotic activity; also recorded: capable of preventing neutrophil apoptosis | Early Apoptosis, Mean [3]: 40.67 | Late Apoptosis, Mean [3]: 6.23 | Total Apoptosis, Mean [3]: 46.43 | Early Apoptosis ([3]; Table VI (peptides 5-9)): 48.94 | Late Apoptosis ([3]; Table VI (peptides 5-9)): 8.99 | Total Apoptosis ([3]; Table VI (peptides 5-9)): 48.77

interferon-g: cytokine that prolongs neutrophil survival
Effect on PCNA degradation in neutrophils [2]: prevented PCNA degradation
